Measured values from patent publication US7595405B2, “Tetrazole-substituted arylamides as P2X3 and P2X2/3 antagonists” (Roche Palo Alto LLC, priority 2006, dated 2009).

Tests used:
rat P2X3 receptor = target: T1, rat P2X3 receptor (Rattus norvegicus, UniProt P49654); assay: P2X3 FLIPR (Fluorometric Imaging Plate Reader) assay; type: cell-based; conditions: CHO-K1 cells transfected with rat P2X3, agonist α,β-meATP 1 μM
T1 construct: expressed in transfected cells; host or cells: CHO-K1
T1 sequence (P49654 1-397): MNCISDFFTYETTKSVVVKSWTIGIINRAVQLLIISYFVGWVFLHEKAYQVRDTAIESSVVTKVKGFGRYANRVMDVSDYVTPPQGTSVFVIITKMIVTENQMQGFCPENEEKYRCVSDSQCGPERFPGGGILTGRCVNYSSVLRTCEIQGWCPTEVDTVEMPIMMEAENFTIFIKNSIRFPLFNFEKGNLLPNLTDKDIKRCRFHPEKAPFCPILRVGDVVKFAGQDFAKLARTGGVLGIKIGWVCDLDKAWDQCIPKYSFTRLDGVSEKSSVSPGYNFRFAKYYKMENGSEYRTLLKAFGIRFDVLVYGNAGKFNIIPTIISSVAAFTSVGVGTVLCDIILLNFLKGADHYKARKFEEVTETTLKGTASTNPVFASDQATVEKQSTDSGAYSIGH
Procedure: P2X3/P2X2/3 FLIPR (Fluorometric Imaging Plate Reader) Assay
CHO-K1 cells were transfected with cloned rat P2X3 or human P2X2/3 receptor subunits and passaged in flasks. 18-24 hours before the FLIPR experiment, cells were released from their flasks, centrifuged, and resuspended in nutrient medium at 2.5×10^5 cells/ml. The cells were aliquoted into black-walled 96-well plates at a density of 50,000 cells/well and incubated overnight in 5% CO2 at 37° C. On the day of the experiment, cells were washed in FLIPR buffer (calcium- and magnesium-free Hank's balanced salt solution, 10 mM HEPES, 2 mM CaCl2, 2.5 mM probenecid; FB). […]
Test compounds (dissolved in DMSO at 10 mM and serially diluted with FB) or vehicle were added to each well (25 μl of a 4× solution) and allowed to equilibrate for 20 minutes at room temperature. The plates were then placed in the FLIPR and a baseline fluorescence measurement (excitation at 488 nm and emission at 510-570 nm) was obtained for 10 seconds before a 100 μl/well agonist or vehicle addition. […] Fluorescence was measured for an additional 2 minutes at 1 second intervals after agonist addition. A final addition of ionomycin (5 μM, final concentration) was made to each well of the FLIPR test plate to establish cell viability and maximum fluorescence of dye-bound cytosolic calcium. […]

Which IC50 (rat P2X3 receptor) does the source give for Cc1ccc(-c2cc(C(=O)N[C@@H](C)CO)cc(-n3nnnc3CC(C)C)c2)cc1 [5-(5-isobutyl-tetrazol-1-yl)-4′-methyl-biphenyl-3-carboxylic acid ((S)-2-hydroxy-1-methyl-ethyl)-amide] here?
Its IC50 is about 1.58 nM.

With CCCc1nnnn1-c1cc(C(=O)NCc2cnc(C)cn2)cc(-c2ccc(Cl)cc2F)c1 [Example 741, 4′-Chloro-2′-fluoro-5-(5-propyl-tetrazol-1-yl)-biphenyl-3-carboxylic acid (5-methyl-pyrazin-2-ylmethyl)-amide] as the molecule, how does the melting point read?
Its melting point is 52 to 55 °C.

With CCCc1nnnn1-c1cc(C(=O)N[C@@H](C)CO)cc(-c2ccc(Cl)cc2F)c1 [Example 742, 4′-Chloro-2′-fluoro-5-(5-propyl-tetrazol-1-yl)-biphenyl-3-carboxylic acid ((S)-2-hydroxy-1-methyl-ethyl)-amide] as the molecule, how does the melting point read?
Its melting point is 58 to 60.3 °C.
